Earlier results on two molecules are cited in patent US20060035976A1, “Methods of preventing headaches with norepinephrine precursors” (priority 2002, published 2006).

In one data set the test system is migraine attacks. The conditions noted are these: 100 mg/day; person with Parkinson's disease, concurrently on L-DOPA, benserazide and amantadine.
In the next data set the test system is pain. As to conditions: 100 mg; including a patient experiencing a cluster headache.

Take `N[C@H](C(=O)O)[C@H](O)c1ccc(O)c(O)c1` [DOPS, Threo-3-(3,4-dihydroxyphenyl)serine]: the “time that increased plasma levels of DOPS and NE remain” value (after oral administration of DOPS) is given as “at least 12 hours”. Besides, for the setting “after oral ingestion of DOPS”, the “time of peak NE levels” value was 5 h and the “time of peak plasma levels of DOPS” value is 3 h. Also, the “specific uptake of DOPS” value in the data set on microvessel preparations is given as “Specific uptake of DOPS has also been demonstrated”.

Regarding `N[C@H](C(=O)O)[C@H](O)c1ccc(O)c(O)c1` [L-DOPS], the “migraine attacks (patient report)” value in the data set with migraine attacks was “migraine attacks were resolved”. Moreover, the analgesic effects entry in the data set on pain was “alleged analgesic effects”.
